The values below come from patent US20260103709A1, “C-MYC-TARGETING CHARGE-ALTERING RELEASABLE TRANSPORTERS AS ANTI-TUMOR AGENTS FOR BREAST CANCER THERAPY” (The Board of Trustees of the Leland Stanford Junior …, priority 2022, published 2026).

One experiment has as its system BT20 cells. As to the kind of experiment: Cell viability after CART with human MYC siRNA, BT20 (low MYC). The format is cell-based. Conditions: JQ1 at the concentrations used for pre-treatment. Here is the method: FIG. 4A to FIG. 4F: CART siMYC decreases cell viability in cells expressing high levels of Myc. […] Error bars represent SEM. Significance was taken at P<0.05 (*), P<0.01 (**), and P<0.005 (***). ns=not significant.
The specificity and dependence of CART siMYC's inhibitory effect on Myc or MYC levels in murine or human TNBC cells, respectively, was evaluated next. […] A number of different murine and human TNBC cell lines expressing high (murine cells: M158, M1011, and 4T1; and human cells: MDA-MB-231 and MDA-MB-436) or low MYC levels (human cell: BT20) were evaluated. […] The viability of M1011 and 4T1 cells was reduced by 25% upon treatment with CART siMYC but not with CARTs alone or with CART siLUC (FIG. 4B, FIG. 4C). In human TNBC cells, treatment with a human MYC-targeting siRNA (SEQ ID NO: 1) reduced viability by 35% or 22% in MDA-MB-231 or MDA-MB-436 cells, respectively (FIG. 4D, FIG. 4E). […]
Plates were incubated for 48 hours and upon treatment completion, a CellTiTer Glow assay was performed according to manufacturer's instructions (Promega). 96-well plates were rocked for 5 minutes at room temperature, 100 μl from each well were transferred to a white opaque 96-well plate and luminescence was read using a SpectraMax Paradigm Multi-Mode Detection Platform plate reader (Molecular Devices).

Experiment [1] relates to human cell lines MDA-MB-436, MDA-MB-231, and BT20. Put plainly: JQ1 cell viability IC50, human TNBC cell lines (CellTiter Glo). Conditions: 24 hour treatment, range over human TNBC cell lines. Type of experiment: cell-based. Here is the method: (§1) The specificity and dependence of CART siMYC's inhibitory effect on Myc or MYC levels in murine or human TNBC cells, respectively, was evaluated next. […] A number of different murine and human TNBC cell lines expressing high (murine cells: M158, M1011, and 4T1; and human cells: MDA-MB-231 and MDA-MB-436) or low MYC levels (human cell: BT20) were evaluated. […] The viability of M1011 and 4T1 cells was reduced by 25% upon treatment with CART siMYC but not with CARTs alone or with CART siLUC (FIG. 4B, FIG. 4C). In human TNBC cells, treatment with a human MYC-targeting siRNA (SEQ ID NO: 1) reduced viability by 35% or 22% in MDA-MB-231 or MDA-MB-436 cells, respectively (FIG. 4D, FIG. 4E). […] We conclude that CART siMYC is effective against TNBC cells expressing high, but not low, MYC levels and that the breadth of its therapeutic effects is dependent on cellular MYC levels.
(§2) […] 96-well plates were rocked for 5 minutes at room temperature, 100 μl from each well were transferred to a white opaque 96-well plate and luminescence was read using a SpectraMax Paradigm Multi-Mode Detection Platform plate reader (Molecular Devices).
A general note: Cellular ATP, detected with luciferase, serves as a proxy for viable cell number.

Experiment [2] relates to murine cell lines M1011, M158, and 4T1. Put plainly: JQ1 cell viability IC50, murine TNBC cell lines (CellTiter Glo). The format is cell-based, mouse. The conditions noted are these: 24 hour treatment, range over murine TNBC cell lines. Here is the method:
as §1, §2

A word on the IC50: it is the point on the concentration scale where inhibition reaches its midpoint. A high value points to a need for much substance. As for `Cc1sc2c(c1C)C(c1ccc(Cl)cc1)=N[C@@H](CC(=O)OC(C)(C)C)c1nnc(C)n1-2` [JQ1], in the experiment on BT20 cells, the “effect of JQ1 on BT20 cells” value is “not significantly affected”. For the same compound, the half-maximal inhibitory concentration (IC50) is 7 to 32 µM in experiment [1] and 0.3 to 0.72 µM in experiment [2].
